The values below come from patent US20220000853A1, “FORMULATIONS, METHODS, KIT, AND DOSAGE FORMS FOR IMPROVED STABILITY OF AN ACTIVE PHARMACEUTICAL INGREDIENT” (Asana BioSciences, LLC, priority 2018, published 2022).

Series [1] is described as follows: Stability tests of COMPOUND A formulations at 40° C./75% RH (discoloration, viscosity, physical state). The class given is physicochemical. The settings on record: poloxamer gel formulations, even at higher concentrations of the salt; expected. The source says:
Table 5 below provides % w/w for COMPOUND A bromide salt polyethylene glycol ointment.

A short description of series [2]: Observations in mice after single topical application (motor function, reflexes, weakness, grip strength, application site). The class given is in vivo.
Method: 3% COMPOUND A in each of the three vehicle formulations prepared as described in Example 1 above—poloxamer (from Table 4 above); hydroxyethylcellulose (HEC) and polyethylene glycol (Ointment) (50 μl) was applied topically to the skin 6 hours prior to the intradermal injection of chloroquine (CQ) (4 mg/ml, 50 μl). […] Following intradermal CQ injection in the ipsilateral neck area, the number of scratches was counted and cumulative counts were recorded by an automated machine for 40 minutes.
Recovery: The condition of the site of injection was examined and observations of redness, swelling or abrasions due to scratching were made prior to and following scratch counting. Animals were euthanized upon completion of the final observations.
Different test articles comprising varying concentrations of COMPOUND A in hydroxyethyl cellulose (HEC) formulations of the specification (“Gel”) and in dimethylsulfoxide (DMSO) vehicle were tested on mice according to the pruritis model described in Example 2. The same strain of mice was used and the animals were housed in the same manner. Each treatment group consisted of 8 mice, and test articles Gel+COMPOUND A 0.3%, 1%, 3% and 5%, and DMSO+COMPOUND A 3% and 5%, were applied topically to the skin six hours prior to the intradermal injection of chloroquine (CQ) (4 mg/ml, 50 μl). […] Following intradermal CQ injection in the ipsilateral neck area, the number of scratches were counted and cumulative counts were recorded by the automated machine for 40 minutes. Following observation, animals were euthanized. In selected groups (Gel+3% COMPOUND A and Gel+5% COMPOUND A) plasma was harvested at 7 hours following the scratch counting. […] Harvested plasma samples were stored at −20° C. prior to analysis.
The carrier gel alone, with no drug, is referred to as “Gel.” Gel and Gel+COMPOUND A 1%,” “Gel+COMPOUND A 2%” and “Gel+COMPOUND A 3% were applied topically to the skin of groups of 8 mice, each of which were subjected to chloroquine injection (CQ; 4 mg/ml, 50μl) according to the pruritis model described in Example 2 at different time points (3 hours, 6 hours and 15 hours) post application of the test or control articles. The same strain of mice as in Example 2 was used, and the animals were housed in the same manner.
A short description of series [3]: Tachyphylaxis study: body weight, application site and distress observations. The class given is in vivo. The procedure: For all three phases, the mice were subjected to the pruritis model as described in Example 2. Upon completion of the scratching assessment mice were placed in their home cage and examined at 24 hours for any adverse skin reactions. Phase 3 animals were euthanized for blood collection following completion of the scratching counts. The condition of the site of injection was examined and observations of redness, swelling or abrasions due to scratching were made following scratch counting and at 24 hours post drug application Animals were euthanized upon completion of the final observations. One mouse died during anesthesia on day 5 after application of 3% drug and one mouse was euthanized because of weight loss. Blood plasma was collected on day 5 following the behavior in the Phase 3 animals. Plasma samples were stored on dry ice until analysis. Data was collected, tabulated and analyzed as described in Example 1, and the results of each phase are discussed below.
This study was performed in three phases, to examine the effect of the successive dosing of poloxamer gel formulations according to the present specification, COMPOUND A (1%) COMPOUND A (3%) and COMPOUND A (3% with gel removal 3 hours after application) on scratching behavior after 5 days of treatment. During Phase 1 of this study, four groups of mice (each n=4) received topical poloxamer gel, COMPOUND A (1%) and COMPOUND A (3%) drug. One group received topical application of COMPOUND A (3%), which was removed after 3 hours. To remove the formulation, a piece of gauze that had been saturated with distilled water was used to gently wipe (not rub) the application site from the rostral end to the caudal end 3 times. The skin was then patted dry with clean gauze. If there were lesions present on the skin, then extra care is taken to avoid irritation or redness.
This treatment was continued for 5 days without any CQ injections. On day 5 all these mice received intradermal CQ 3 hours after the last application of the drug (n=4).

Series [4] can be described thus: Single ascending dose first-in-human study: safety and tolerability. The class given is in vivo. The settings on record: healthy subjects. The procedure:
The objective of this study was to evaluate the safety, tolerability, pharmacokinetics and effect on tactile stimulation of topical formulations of COMPOUND A in healthy subjects.
(§1) Four single ascending dose cohorts (six active and two placebo subjects per cohort) were evaluated after topical application of a COMPOUND A topical poloxamer gel at an application rate of 82, 164, 328 and 492 μg active moiety/cm^2 on the volar forearm over a 10 cm^2 area. Two concentrations of a COMPOUND A topical poloxamer gel: 1% (0.82% active moiety) and 3% (2.46% active moiety) were evaluated in this study. The 1% and 3% gels used were made as described in Example 1 above. Safety was evaluated via hematology, biochemistry and urinalysis clinical laboratory analyses, electrocardiograms and adverse event collection for 14 days following dose administration. The clinical laboratory analyses included hematocrit; Hgb; MCH; MCHC; MCV; MPV; PLT; RBC; WBC and differentials (neutrophils, lymphocytes, monocytes, eosinophils, and basophils relative and absolute); biochemistry albumin; alkaline phosphatase; ALT; AST; chloride; creatinine (enzymatic); GGT; glucose random; LDH; potassium; sodium; total bilirubin; urea (BUN); uric acid; urinalysis color, clarity, pH, specific gravity, bilirubin, glucose, ketones, leukocytes, nitrite, blood, protein, urobilinogen and microscopic analysis. Local skin tolerability was assessed using a 4-point ordinal scale, and serial plasma samples for PK analysis were collected for up to 7 days post-application. The 4-point ordinal scale used was as follows: 0 (None); 1 (Mild); 2 (Moderate); 3 (Severe) for each of the following: erythema, stinging, itching, burning, desquamation, edema, and pain. Semmes-Weinstein microfilaments were used to assess response to tactile stimulation on the treated area of the forearm; these microfilaments were the same as those commonly used to test patients for diabetic neuropathy.

Series [5] can be described thus: Single ascending dose first-in-human study: plasma pharmacokinetics. The class given is in vivo. The settings on record: healthy subjects, topical poloxamer gel, most samples; quantifiable limit. The procedure: as §1, with “The 4-point ordinal scale used was as follows: 0 (None); 1 (Mild); 2 (Moderate); 3 (Severe) for each of the following: erythema, stinging, itching, burning, desquamation, edema, and pain. Semmes-Weinstein microfilaments were used to assess response to tactile stimulation on the treated area of the forearm; these microfilaments were the same as those commonly used to test patients for diabetic neuropathy.” left out

Series [6] in a line: Single ascending dose first-in-human study: tactile stimulation with Semmes-Weinstein microfilaments. The class given is in vivo. The settings on record: healthy subjects, treated area of the forearm, normal skin. The procedure: as §1, with “The 4-point ordinal scale used was as follows: 0 (None); 1 (Mild); 2 (Moderate); 3 (Severe) for each of the following: erythema, stinging, itching, burning, desquamation, edema, and pain. Semmes-Weinstein microfilaments were used to assess response to tactile stimulation on the treated area of the forearm; these microfilaments were the same as those commonly used to test patients for diabetic neuropathy.” left out

Another series has as its system sodium channel. The settings on record: through capsaicin-activated TRPV1 channels; cited from earlier work.
[7] abbreviates: following single topical application of the drug.

SMILES strings stand for the structures. Where a name gives a salt, the structure may show the parent alone. Where only a bound is given, the exact number is not on record here.

`Cc1ccccc1N(CC[C@H]1CCCC[N+]1(C)C)C1Cc2ccccc2C1` [COMPOUND A methanesulfonate salt, (R)-2-(2-((2,3-dihydro-1H-inden-2-yl)(o-tolyl)amino)ethyl)-1,1-dimethylpiperidin-1-ium]: the Discoloration entry in series [1] is on record as “little to no discoloration”.
As for `Cc1ccccc1N(CC[C@H]1CCCC[N+]1(C)C)C1Cc2ccccc2C1` [COMPOUND A, (R)-2-(2-((2,3-dihydro-1H-inden-2-yl)(o-tolyl)amino)ethyl)-1,1-dimethylpiperidin-1-ium], the “Scratching at the site of application prior to injection of CQ” value in series [2] (3% in HEC gel, poloxamer gel or ointment) is reported as “did not display scratching”. Also, the Weakness entry in series [2] (following single topical application) was “No weakness was observed”. The “Motor function (measured by placing and stepping)” value in series [2] (setting [7]) is reported as “normal”. The “Pinna and corneal reflexes” value in series [2] (setting [7]) is recorded as “normal”. Moreover, the Recovery result in series [3] (Phase 1, observed until day 9) was “they all recovered their weight and from their redness”. The Body weight result is given as “slight drop in the weight” in series [3] (Phase 1, poloxamer gel 1% and 3%, 5 days); “No weight loss was observed” in series [3] (Phase 2, poloxamer gel 0.1% and 0.3%, 5 days). For the same compound, the Lethargy or distress entry in series [3] (Phase 1, poloxamer gel, 5 days) was “No signs of lethargy or distress were observed”. In addition, in series [3] (Phase 1, poloxamer gel, 5 days (scaly by day 3; redness Day 4 and 5, no gel removal)), the “Skin at the site of application” value is “scaly texture at the site of application”. The “Local tolerability of the gels (4-point ordinal scale)” value in series [4] (topical poloxamer gel 1% and 3%) is recorded as “Excellent local tolerability”. Further, in series [4] (topical poloxamer gel 1% and 3%, single dose 82, 164, 328 and 492 μg active moiety/cm^2, volar forearm 10 cm^2), the “Tolerability of all doses” value was “well-tolerated”. Further, the “Dose-limiting toxicities or treatment-related adverse events” value in series [4] (up to the highest administered dose (492 μg active moiety/cm^2)) is “No dose-limiting toxicities or treatment-related adverse events were reported”. Further, the Plasma concentration in series [5] is listed as less than 10 pg/mL. Further, the Tactile stimulation assessments result in series [6] is recorded as “No trends were noted”.
Take `CC[N+](CC)(CC)CC(=O)Nc1c(C)cccc1C` [QX-314]: the Sodium channel activity entry in the series with sodium channel was “permeates through capsaicin-activated TRPV1 channels and blocks sodium channel activity”.
